# Measurements reported in patent US6348309B1, “Process for inactivating viruses in blood and blood products” (priority 1989, dated 2002).
# What was measured:
# coagulation factor IX = biological target: T1, coagulation factor IX (Homo sapiens, UniProt P00740); test: Coagulation factor activity in human plasma with MB and light exposure (Example 10); assay type: biochemical
# T1 construct: Varying amounts of MB were added to human plasma (2 ml aliquots); from tissue; host or cells: human plasma
# T1 sequence (P00740 47-461): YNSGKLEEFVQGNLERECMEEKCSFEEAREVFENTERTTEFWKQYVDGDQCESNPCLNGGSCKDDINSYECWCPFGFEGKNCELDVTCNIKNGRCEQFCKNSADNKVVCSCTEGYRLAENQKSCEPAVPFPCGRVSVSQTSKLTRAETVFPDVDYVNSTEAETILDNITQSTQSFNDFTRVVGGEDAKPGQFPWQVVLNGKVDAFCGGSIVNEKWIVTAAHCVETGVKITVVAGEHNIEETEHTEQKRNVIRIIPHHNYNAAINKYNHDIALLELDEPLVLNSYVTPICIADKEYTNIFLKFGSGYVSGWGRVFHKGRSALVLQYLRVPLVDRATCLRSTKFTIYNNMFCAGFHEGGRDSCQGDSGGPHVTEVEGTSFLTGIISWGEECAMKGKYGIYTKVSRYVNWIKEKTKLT
# coagulation factor V = biological target: T2, coagulation factor V (Homo sapiens, UniProt P12259); test: as above; assay type: biochemical
# T2 construct: Varying amounts of MB were added to human plasma (2 ml aliquots); from tissue; host or cells: human plasma
# T2 sequence (P12259 29-2224): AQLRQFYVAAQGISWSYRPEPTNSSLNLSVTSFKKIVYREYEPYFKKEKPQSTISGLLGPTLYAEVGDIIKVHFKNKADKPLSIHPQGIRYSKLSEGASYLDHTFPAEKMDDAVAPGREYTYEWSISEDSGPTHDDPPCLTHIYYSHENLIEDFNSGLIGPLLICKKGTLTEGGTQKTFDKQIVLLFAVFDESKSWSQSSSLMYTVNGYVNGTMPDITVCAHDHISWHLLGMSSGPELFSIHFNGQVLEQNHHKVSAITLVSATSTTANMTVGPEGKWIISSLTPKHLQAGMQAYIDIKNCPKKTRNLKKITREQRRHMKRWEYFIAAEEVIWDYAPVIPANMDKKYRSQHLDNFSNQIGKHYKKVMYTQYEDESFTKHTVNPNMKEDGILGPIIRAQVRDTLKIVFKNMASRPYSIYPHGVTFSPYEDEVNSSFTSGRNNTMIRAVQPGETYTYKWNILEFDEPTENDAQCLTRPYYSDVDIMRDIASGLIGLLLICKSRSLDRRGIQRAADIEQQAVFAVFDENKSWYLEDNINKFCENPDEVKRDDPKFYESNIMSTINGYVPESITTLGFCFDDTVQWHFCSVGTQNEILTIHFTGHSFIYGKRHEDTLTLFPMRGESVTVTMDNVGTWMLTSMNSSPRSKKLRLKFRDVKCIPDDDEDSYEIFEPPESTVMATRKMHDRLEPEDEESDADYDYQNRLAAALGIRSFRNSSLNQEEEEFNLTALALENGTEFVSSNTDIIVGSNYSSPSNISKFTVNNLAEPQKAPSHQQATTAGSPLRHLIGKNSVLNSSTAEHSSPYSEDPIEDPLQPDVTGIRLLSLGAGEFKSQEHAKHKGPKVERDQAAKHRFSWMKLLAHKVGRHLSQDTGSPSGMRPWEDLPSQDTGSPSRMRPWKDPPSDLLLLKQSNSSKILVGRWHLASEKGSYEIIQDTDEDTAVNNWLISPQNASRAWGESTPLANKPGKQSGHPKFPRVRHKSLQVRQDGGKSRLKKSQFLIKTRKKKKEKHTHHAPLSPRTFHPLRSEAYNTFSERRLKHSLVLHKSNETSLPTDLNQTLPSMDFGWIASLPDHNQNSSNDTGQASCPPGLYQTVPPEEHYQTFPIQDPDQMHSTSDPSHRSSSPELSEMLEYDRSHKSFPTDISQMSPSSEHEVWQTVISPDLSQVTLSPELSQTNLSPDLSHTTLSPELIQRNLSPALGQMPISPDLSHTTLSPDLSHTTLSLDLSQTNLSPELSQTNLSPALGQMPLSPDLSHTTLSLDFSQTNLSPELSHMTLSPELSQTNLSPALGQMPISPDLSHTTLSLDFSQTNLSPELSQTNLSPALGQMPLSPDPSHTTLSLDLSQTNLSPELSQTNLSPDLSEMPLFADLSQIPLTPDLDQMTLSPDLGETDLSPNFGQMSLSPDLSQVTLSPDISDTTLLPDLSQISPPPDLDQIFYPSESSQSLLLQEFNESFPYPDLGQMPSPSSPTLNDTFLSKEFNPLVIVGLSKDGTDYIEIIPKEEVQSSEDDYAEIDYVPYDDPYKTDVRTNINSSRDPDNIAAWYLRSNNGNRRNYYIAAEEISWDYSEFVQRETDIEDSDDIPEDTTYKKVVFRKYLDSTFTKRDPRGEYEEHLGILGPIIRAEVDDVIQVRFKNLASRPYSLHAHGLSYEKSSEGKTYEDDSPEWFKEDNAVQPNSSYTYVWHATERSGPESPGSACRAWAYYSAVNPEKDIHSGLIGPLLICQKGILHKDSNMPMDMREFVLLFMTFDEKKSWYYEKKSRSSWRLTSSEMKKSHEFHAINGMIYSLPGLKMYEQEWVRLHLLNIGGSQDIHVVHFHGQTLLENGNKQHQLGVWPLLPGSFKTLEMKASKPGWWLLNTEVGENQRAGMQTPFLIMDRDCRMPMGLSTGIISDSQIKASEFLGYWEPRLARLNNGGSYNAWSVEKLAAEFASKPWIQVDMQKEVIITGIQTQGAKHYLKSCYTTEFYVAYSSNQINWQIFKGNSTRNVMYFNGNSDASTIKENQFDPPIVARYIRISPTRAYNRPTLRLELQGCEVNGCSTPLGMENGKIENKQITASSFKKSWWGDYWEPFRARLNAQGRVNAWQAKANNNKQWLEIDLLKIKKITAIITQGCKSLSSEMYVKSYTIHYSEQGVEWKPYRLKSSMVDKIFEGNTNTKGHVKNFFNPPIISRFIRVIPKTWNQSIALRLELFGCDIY
# adeno-virus = test: Photodynamic treatment of adenovirus with freeze/thaw step (Example 8); assay type: cell-based
# VSV = assay type: cell-based, vesicular stomatitis virus
# coagulation factor VIII [1] = biological target: T3, coagulation factor VIII (Homo sapiens, UniProt P00451); test: Coagulation factor activity in human plasma with MB and light exposure (Example 10); assay type: biochemical
# T3 construct: Varying amounts of MB were added to human plasma (2 ml aliquots); from tissue; host or cells: human plasma
# T3 sequence (P00451 20-1332 limits assumed): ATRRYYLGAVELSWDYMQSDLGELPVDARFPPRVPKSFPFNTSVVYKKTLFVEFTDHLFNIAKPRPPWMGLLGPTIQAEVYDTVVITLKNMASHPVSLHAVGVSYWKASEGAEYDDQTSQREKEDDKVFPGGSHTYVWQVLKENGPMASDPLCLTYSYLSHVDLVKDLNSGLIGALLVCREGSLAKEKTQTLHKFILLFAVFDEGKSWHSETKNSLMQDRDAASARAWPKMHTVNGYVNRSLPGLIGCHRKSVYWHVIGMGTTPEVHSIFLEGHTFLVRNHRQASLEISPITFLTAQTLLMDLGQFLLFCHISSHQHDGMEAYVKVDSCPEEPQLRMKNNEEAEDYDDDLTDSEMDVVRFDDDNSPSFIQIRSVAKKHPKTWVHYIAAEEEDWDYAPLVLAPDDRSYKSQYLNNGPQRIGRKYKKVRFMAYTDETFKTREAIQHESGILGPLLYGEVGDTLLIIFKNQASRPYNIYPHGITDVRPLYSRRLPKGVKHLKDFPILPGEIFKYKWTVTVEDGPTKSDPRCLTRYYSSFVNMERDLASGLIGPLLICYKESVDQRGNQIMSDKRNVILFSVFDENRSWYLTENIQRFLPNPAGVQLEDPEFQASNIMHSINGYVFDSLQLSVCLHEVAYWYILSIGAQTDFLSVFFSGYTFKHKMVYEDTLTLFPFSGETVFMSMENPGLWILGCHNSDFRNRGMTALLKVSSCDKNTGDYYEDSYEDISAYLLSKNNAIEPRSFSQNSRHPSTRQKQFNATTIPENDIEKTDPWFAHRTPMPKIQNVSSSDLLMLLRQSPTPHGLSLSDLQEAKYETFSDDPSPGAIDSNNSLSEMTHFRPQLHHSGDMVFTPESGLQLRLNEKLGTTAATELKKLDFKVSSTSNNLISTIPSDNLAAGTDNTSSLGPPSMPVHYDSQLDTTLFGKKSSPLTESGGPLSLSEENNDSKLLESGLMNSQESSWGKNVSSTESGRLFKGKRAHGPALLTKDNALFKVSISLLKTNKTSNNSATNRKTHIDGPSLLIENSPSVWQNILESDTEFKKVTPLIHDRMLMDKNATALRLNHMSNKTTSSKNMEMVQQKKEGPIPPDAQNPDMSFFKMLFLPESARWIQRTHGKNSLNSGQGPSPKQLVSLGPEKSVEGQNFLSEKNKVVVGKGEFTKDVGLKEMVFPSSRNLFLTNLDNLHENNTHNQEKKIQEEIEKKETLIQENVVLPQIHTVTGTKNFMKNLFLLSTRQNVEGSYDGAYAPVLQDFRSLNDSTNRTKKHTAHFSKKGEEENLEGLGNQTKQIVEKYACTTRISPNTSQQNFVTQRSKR
# T3 sequence (P00451 1668-2351 limits assumed): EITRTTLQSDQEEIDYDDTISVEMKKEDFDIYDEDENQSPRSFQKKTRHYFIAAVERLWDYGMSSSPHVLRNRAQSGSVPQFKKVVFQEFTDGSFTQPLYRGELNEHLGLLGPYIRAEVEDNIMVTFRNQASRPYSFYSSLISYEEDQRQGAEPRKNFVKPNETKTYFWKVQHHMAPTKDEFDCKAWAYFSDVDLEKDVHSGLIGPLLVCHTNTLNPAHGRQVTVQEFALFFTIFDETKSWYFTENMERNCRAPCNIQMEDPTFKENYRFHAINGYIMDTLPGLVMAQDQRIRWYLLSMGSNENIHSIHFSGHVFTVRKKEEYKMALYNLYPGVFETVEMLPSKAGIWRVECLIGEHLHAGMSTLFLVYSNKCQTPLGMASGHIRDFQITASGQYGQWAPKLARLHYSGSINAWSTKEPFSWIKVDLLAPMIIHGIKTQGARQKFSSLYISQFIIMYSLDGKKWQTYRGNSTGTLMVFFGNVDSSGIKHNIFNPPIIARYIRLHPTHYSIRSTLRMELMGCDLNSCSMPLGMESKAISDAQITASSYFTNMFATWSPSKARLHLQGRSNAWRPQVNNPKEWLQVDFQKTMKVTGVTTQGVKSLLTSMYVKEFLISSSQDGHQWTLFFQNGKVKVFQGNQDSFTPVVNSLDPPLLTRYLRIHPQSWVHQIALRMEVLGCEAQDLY
# SIV = test: MB/light virus inactivation in plasma (Example 6, Table VI); assay type: cell-based; settings: illumination 15 min; * production conditions, plastic bag 250-300 ml plasma
# coagulation factor VIII [2] = biological target: T3, coagulation factor VIII; test: Coagulation factor activity in human plasma right after MB addition (Example 9); assay type: biochemical; settings: no light
smiles,measurement,setting,value
"CN(C)c1ccc2nc3ccc(=[N+](C)C)cc-3sc2c1 [MB, methylene blue]",Factor IX,"coagulation factor IX; light exposure 0 h, MB 1 μM",1.20 E/ml
same,Factor IX,"coagulation factor IX; light exposure 0 h, MB 2.5 μM",0.46 E/ml
same,Factor IX,"coagulation factor IX; light exposure 0 h, MB 10 μM",0.44 E/ml
same,Factor IX,"coagulation factor IX; light exposure 1 h, MB 1 μM",0.92 E/ml
same,Factor IX,"coagulation factor IX; light exposure 1 h, MB 2.5 μM",0.82 E/ml
same,Factor IX,"coagulation factor IX; light exposure 1 h, MB 10 μM",0.68 E/ml
same,Factor IX,"coagulation factor IX; light exposure 2 h, MB 1 μM",0.90 E/ml
same,Factor IX,"coagulation factor IX; light exposure 2 h, MB 2.5 μM",0.72 E/ml
same,Factor IX,"coagulation factor IX; light exposure 2 h, MB 10 μM",0.74 E/ml
same,Factor IX,"coagulation factor IX; light exposure 4 h, MB 1 μM",0.94 E/ml
same,Factor IX,"coagulation factor IX; light exposure 4 h, MB 2.5 μM",0.82 E/ml
same,Factor IX,"coagulation factor IX; light exposure 4 h, MB 10 μM",0.64 E/ml
same,Factor V,"coagulation factor V; light exposure 0 h, MB 1 μM",0.86 E/ml
same,Factor V,"coagulation factor V; light exposure 0 h, MB 2.5 μM",0.82 E/ml
same,Factor V,"coagulation factor V; light exposure 0 h, MB 10 μM",0.72 E/ml
same,Factor V,"coagulation factor V; light exposure 1 h, MB 1 μM",0.72 E/ml
same,Factor V,"coagulation factor V; light exposure 1 h, MB 2.5 μM",0.68 E/ml
same,Factor V,"coagulation factor V; light exposure 1 h, MB 10 μM",0.47 E/ml
same,Factor V,"coagulation factor V; light exposure 2 h, MB 1 μM",0.64 E/ml
same,Factor V,"coagulation factor V; light exposure 2 h, MB 2.5 μM",0.68 E/ml
same,Factor V,"coagulation factor V; light exposure 2 h, MB 10 μM",0.60 E/ml
same,Factor V,"coagulation factor V; light exposure 4 h, MB 1 μM",0.56 E/ml
same,Factor V,"coagulation factor V; light exposure 4 h, MB 2.5 μM",0.49 E/ml
same,Factor V,"coagulation factor V; light exposure 4 h, MB 10 μM",0.42 E/ml
same,Virus Titer,adeno-virus; Sample C: F/T + MB + 60 min pre-incubation + 60 min irradiation,2.5 Log10 TCID50
same,Virus Titer,"adeno-virus; Sample D: MB + F/T, no irradiation",7.5 Log10 TCID50
same,Virus Titer,adeno-virus; Sample E: MB + F/T + 10 min irradiation,5.0 Log10 TCID50
same,Virus Titer,adeno-virus; Sample F: MB + F/T + 30 min irradiation,5.0 Log10 TCID50
same,Virus Titer,adeno-virus; Sample G: MB + F/T + 60 min irradiation,4.0 Log10 TCID50
same,concentration of MB required for complete inactivation of VSV,VSV,0.5 µM
same,inactivation factor (VSV completely inactivated),VSV,more than 4 log10
same,Factor VIII,"coagulation factor VIII [1]; light exposure 0 h, MB 1 μM",0.45 E/ml
same,Factor VIII,"coagulation factor VIII [1]; light exposure 0 h, MB 2.5 μM",0.33 E/ml
same,Factor VIII,"coagulation factor VIII [1]; light exposure 0 h, MB 10 μM",0.30 E/ml
same,Factor VIII,"coagulation factor VIII [1]; light exposure 1 h, MB 1 μM",0.24 E/ml
same,Factor VIII,"coagulation factor VIII [1]; light exposure 1 h, MB 2.5 μM",0.24 E/ml
same,Factor VIII,"coagulation factor VIII [1]; light exposure 1 h, MB 10 μM",0.16 E/ml
same,Factor VIII,"coagulation factor VIII [1]; light exposure 2 h, MB 1 μM",0.23 E/ml
same,Factor VIII,"coagulation factor VIII [1]; light exposure 2 h, MB 2.5 μM",0.22 E/ml
same,Factor VIII,"coagulation factor VIII [1]; light exposure 2 h, MB 10 μM",0.15 E/ml
same,Factor VIII,"coagulation factor VIII [1]; light exposure 4 h, MB 1 μM",0.16 E/ml
same,Factor VIII,"coagulation factor VIII [1]; light exposure 4 h, MB 2.5 μM",0.29 E/ml
same,Factor VIII,"coagulation factor VIII [1]; light exposure 4 h, MB 10 μM",0.27 E/ml
same,Inactivation Rate,SIV,>6.26 * log10 TCID50
same,Factor VIII,coagulation factor VIII [2]; Methylene Blue 1 μM,0.41 E/ml
same,Factor VIII,coagulation factor VIII [2]; Methylene Blue 2.5 μM,0.41 E/ml
same,Factor VIII,coagulation factor VIII [2]; Methylene Blue 5 μM,0.38 E/ml
same,Factor VIII,coagulation factor VIII [2]; Methylene Blue 10 μM,0.35 E/ml
same,Factor VIII,coagulation factor VIII [2]; Methylene Blue 20 μM,0.28 E/ml
same,MB concentration from which factor VIII activity is inhibited,coagulation factor VIII [2],about 10 μM
